# Like-named read-outs stand apart in the source and are kept apart here.
# What was measured:
# human mGluR5a receptor [1] = target: T1, human mGluR5a receptor (Homo sapiens, UniProt P41594); experiment: Phosphatidylinositol hydrolysis (IP1) assay in HEK 293 cells transiently transfected with mGluR5a3; format: cell-based; parameters: expressed in transfected cells; host or cells: HEK 293 cells, transient CaPO4 transfection
# Procedure: HEK 293 cells that had been transiently transfected with mGluR5a3 were plated in 24-well microtiter plates at a density of 8×10^5 cells/well. After the cells were allowed to settle and adhere to the bottom of the plate for a few hours, 2 μCi of [^3H]-myo-inositol (Amersham catalog # PT6-271, Arlington Heights, Ill.; specific activity=17.7 Ci/mmol) was added to each well and incubated overnight at 37° C. The next day, the cells were examined under a Nikon Diaphot inverted microscope to assess the health of the cells morphologically as well as to determine if the wells contained a confluent layer of cells. Media was then aspirated and the cells were washed twice with 0.5 ml Krebs bicarbonate buffer [117.9 mM NaCl, 4.72 mM KCl, 2.54 mM CaCl2, 1.18 mM MgSO4, 1.19 mM KH2PO4, 25 mM NaHCO3, 11.1 mM dextrose (equilibrated with 95% O2, 5% CO2, pH 7.4)]. The cells were incubated for 45 min. at room temperature. The buffer was then aspirated from each well and the cells were washed and incubated in 0.5 ml/well for 45 min at room temperature. The buffer was aspirated from each well, and the cells were then incubated for 20 min at 37° C. with 450 μl Krebs-bicarbonate buffer containing 10 mM LiCl instead of 10 mM NaCl (to block hydrolysis of IP1 to inositol and inorganic phosphate) and 10 mM unlabeled myo-inositol.
# To begin treatment of the cells with metabotropic receptor-modulating compounds, 50 μl of Krebs-bicarbonate buffer (control) or 10× the final concentration of the compound was added to each well and the incubation was continued for 40 min. Incubation was terminated by addition of 1 ml ice-cold methanol to each well.
# In order to isolate IP1 from the cells, the cells were removed from the plates by scraping with plastic pipette tips, and the cell suspension was transferred to 12×75 mm glass tubes. The tubes were thoroughly vortexed, and a 150-μl aliquot, i.e., one-tenth of the total volume, of each reaction mixture was transferred to another tube for protein determination. The water-soluble inositol phosphates were separated from the radiolabelled membrane phospholipids by extraction in 1 ml chloroform. The tubes were incubated at room temperature for 30 min before centrifugation at 500×g for 5 min at 4° C. The aqueous (top) layer containing the [^3H]-inositol phosphates was transferred to 10-ml syringes connected to Accell QMA SEP-PAK columns (Millipore; Calif.), which were attached to an Amersham Superseparator apparatus that was modified to allow collection into 20-ml scintillation vials. Water (10 ml) was added to the cartridge to remove [^3H]-inositol precursor, followed by 4 ml 0.02 M triethylammonium hydrogen carbonated buffer (TEAB, Fluka; N.Y.). To separately remove [^3H]-IP1, [^3H]-IP2 and [^3H]-IP3 from the cartridge, 4 ml of 0.1 M TEAB, 4 ml of 0.3 M TEAB and 4 ml of 0.4 M TEAB were sequentially added to the cartridge and the separate eluate fractions were collected in large scintillation vials. Ecolume cocktail (15 ml; ICN; California) was added to each vial for subsequent scintillation counting to determine the amount of each IP in the separate fractions. Protein concentration was determined using the Bio-Rad Protein Micro-Assay (Bio-Rad, Richmond, Calif.).
# [2] = system: untransfected HEK 293 cells; experiment: Fluorescence imaging assay (fura-2), untransfected control cells; format: cell-based, human; conditions: 100 μM, on average
# Procedure: (§1) HEK 293 cells that had been transiently transfected with mGluR5a3 and untransfected HEK 293 cells (control) were analyzed by digital video imaging in order to visualize metabotropic receptor-mediated changes in intracellular Ca^++ concentration. Transfectants (4×10^5 cells per 35-mm culture dish with glass-insert bottom) were loaded with fura-2 by exposing the cells to 1 μM fura-2 (acetoxymethyl ester) for 25 min at room temperature in the dark. The cells were then washed three times with DMEM and four times with Ringer's (160 mM NaCl, 5 mM KCl, 2 mM CaCl2, 1 mM MgCl2, 11 mM glucose, 5 mM HEPES, pH 7.3) solution.
# (§2) The transfectants and untransfected cells were then placed on the stage of an Axiovert 100 TV inverted microscope (Zeiss, Oberkochren, Germany) equipped with a 150 W xenon lamp as the UV light source. […]
# (§3) The uncalibrated fura-2 ratios were used to generate pseudocolor images with purple corresponding to resting intracellular Ca^++ concentration (˜100 nM) and red to high intracellular Ca^++ concentration (˜1 μM). For quantitative analysis, the average ratio value in a 12-by-12 pixel region over each cell was calculated by the software for each ratio image in an experiment and imported into a spreadsheet for further analysis and graphing.
# human mGluR5a receptor [3] = target: T1, human mGluR5a receptor; experiment: Fluorescence imaging assay (fura-2) in HEK 293 cells transiently transfected with mGluR5a3; format: cell-based; parameters: expressed in transfected cells; host or cells: HEK 293 cells, transient CaPO4 transfection; conditions: 100 μM; HEK 293 transiently transfected with mGluR5a3
# Procedure: as §1, §2, §3
# [4] = 1 mM, HEK 293 transfected with 0.18 μg of mGluR5a3
# [5] = varying amounts of compound, cells transfected with mGluR5a3
# T1 sequence (P41594 21-1180 isoform P41594-2 limits assumed): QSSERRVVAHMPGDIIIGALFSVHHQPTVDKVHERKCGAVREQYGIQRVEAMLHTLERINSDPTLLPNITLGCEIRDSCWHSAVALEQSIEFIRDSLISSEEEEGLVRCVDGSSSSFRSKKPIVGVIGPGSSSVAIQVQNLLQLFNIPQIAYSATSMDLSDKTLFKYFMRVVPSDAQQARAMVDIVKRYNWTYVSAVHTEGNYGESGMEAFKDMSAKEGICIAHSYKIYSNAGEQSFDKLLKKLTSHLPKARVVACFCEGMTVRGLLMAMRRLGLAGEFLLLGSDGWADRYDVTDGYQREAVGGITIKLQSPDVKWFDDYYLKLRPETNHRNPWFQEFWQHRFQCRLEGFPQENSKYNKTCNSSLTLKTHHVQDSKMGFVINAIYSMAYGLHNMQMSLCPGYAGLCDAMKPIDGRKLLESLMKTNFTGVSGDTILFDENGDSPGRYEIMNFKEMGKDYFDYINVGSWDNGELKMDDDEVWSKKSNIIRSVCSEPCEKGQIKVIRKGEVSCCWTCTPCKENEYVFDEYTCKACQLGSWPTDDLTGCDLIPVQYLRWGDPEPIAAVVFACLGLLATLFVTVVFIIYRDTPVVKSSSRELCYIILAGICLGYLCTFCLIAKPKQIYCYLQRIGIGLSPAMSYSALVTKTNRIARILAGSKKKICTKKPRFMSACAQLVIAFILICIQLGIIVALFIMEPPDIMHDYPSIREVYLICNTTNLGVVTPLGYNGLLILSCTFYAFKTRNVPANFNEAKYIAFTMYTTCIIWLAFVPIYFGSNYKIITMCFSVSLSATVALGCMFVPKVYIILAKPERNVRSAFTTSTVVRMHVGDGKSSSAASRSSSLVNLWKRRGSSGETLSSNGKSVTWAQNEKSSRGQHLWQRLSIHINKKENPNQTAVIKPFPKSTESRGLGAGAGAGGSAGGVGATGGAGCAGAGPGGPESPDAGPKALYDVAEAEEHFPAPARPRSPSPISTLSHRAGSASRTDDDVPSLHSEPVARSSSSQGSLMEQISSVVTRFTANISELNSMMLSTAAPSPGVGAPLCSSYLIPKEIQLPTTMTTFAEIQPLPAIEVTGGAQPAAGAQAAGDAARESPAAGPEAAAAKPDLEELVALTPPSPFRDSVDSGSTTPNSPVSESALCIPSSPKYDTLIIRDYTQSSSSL
Structure (SMILES),IP1 levels on treatment with compound (human mGluR5a receptor [1]; [4]),dose-response of IP1 levels (human mGluR5a receptor [1]; [5]),intracellular Ca++ concentration change [2],transfected cells whose intracellular Ca++ concentration increased (human mGluR5a receptor [3]) [%],IP1 levels on treatment with compound (human mGluR5a receptor [1]),dose-response of IP1 levels (human mGluR5a receptor [1])
"NC1(C(=O)O)CCC(C(=O)O)C1 (stereo not drawn) [1S,3R-ACPD, 1-amino-cyclopentyl-1,3-dicarboxylic acid]",detectable increases in IP1 levels,IP1 levels increased with increasing concentration,–,–,–,–
N[C@@H](CCC(=O)O)C(=O)O [glutamate],detectable increases in IP1 levels,IP1 levels increased with increasing concentration,–,–,–,–
N[C@@H](Cn1oc(=O)[nH]c1=O)C(=O)O [quisqualate],–,–,did not change,26.7±22.3,detectable increases in IP1 levels,IP1 levels increased with increasing concentration

# Source: patent publication US6413764B1, “Human metabotropic glutamate receptors, nucleic acids encoding same and uses thereof” (Merck & Co., Inc., priority 1993, dated 2002)
